Measured values from PMC3495945, “Org 214007-0: A Novel Non-Steroidal Selective Glucocorticoid Receptor Modulator with Full Anti-Inflammatory Properties and Improved Therapeutic Index” (PLoS ONE, 2012).

Legend:
GR = target: T1, GR (Homo sapiens, UniProt P04150); assay: ChIP-Seq analysis of GR binding to DNA in THP-1 cells; assay type: cell-based; design: endogenous in cells; host or cells: THP-1; conditions: for number of ChIP-Seq clusters compared to vehicle: THP-1, 1 μM, 1 hour
T1 sequence (P04150 1-777): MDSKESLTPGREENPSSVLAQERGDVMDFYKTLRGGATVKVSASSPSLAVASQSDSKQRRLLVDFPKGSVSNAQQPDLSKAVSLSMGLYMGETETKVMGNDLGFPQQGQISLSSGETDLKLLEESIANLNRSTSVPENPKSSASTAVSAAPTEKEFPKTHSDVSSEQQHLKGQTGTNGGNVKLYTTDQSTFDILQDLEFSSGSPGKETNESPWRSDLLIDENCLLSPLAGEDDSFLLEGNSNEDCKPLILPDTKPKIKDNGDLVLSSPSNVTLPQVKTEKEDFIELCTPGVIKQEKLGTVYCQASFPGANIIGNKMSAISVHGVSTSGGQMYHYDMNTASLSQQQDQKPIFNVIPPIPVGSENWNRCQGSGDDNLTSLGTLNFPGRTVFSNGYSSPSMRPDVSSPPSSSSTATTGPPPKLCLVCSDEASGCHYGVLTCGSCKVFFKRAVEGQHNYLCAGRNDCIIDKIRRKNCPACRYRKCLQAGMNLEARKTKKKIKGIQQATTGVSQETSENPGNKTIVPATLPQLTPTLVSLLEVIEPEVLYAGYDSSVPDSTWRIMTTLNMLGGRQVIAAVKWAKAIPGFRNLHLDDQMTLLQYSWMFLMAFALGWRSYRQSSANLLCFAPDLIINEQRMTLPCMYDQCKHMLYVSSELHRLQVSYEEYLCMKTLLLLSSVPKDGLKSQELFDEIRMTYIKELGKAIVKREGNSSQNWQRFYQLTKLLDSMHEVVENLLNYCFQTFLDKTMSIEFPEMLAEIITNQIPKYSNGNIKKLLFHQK
Experimental: From the THP-1 samples that were used for gene expression analysis after 6 hours, samples were drawn after 1 hour and used for ChIP–Seq analysis at Genpathway (Carlsbad, CA). For precipitation of genomic DNA regions antibody against GR (Santa Cruz sc-8992) was used. Details are provided in SI text. The obtained amplified DNA libraries were sent to Illumina Sequencing Services (San Diego, CA) for sequencing on a Genome Analyzer II. Sequence files were analyzed with the Genomatix Genome Analyzer Workbench from Genomatix (Genomatix Software GmbH, Munich). Sequences were clustered using default parameter settings and aligned against the human genome version GRCh37/hg19. Clusters were merged using the Replicate Analysis module from the Workbench package (more detailed information in SI text).
Cells were fixed with 1% formaldehyde for 15 min and quenched with 0.125 M glycine. Chromatin was isolated by adding lysis buffer, followed by disruption with a Dounce homogenizer (cells) or motor pestle (tissue). Lysates were sonicated and the DNA sheared to an average length of 300-500 bp. Genomic DNA (Input) was prepared by treating aliquots of chromatin with RNase, proteinase K and heat for de-crosslinking, followed by ethanol precipitation. Pellets were resuspended and the resulting DNA was quantified on a NanoDrop spectrophotometer. Extrapolation to the original chromatin volume allowed quantitation of the total chromatin yield.
An aliquot of chromatin (28.5 ug) was precleared with protein A agarose beads (Invitrogen). Genomic DNA regions of interest were isolated using 4 ug antibody against GR (Santa Cruz sc-8992). Complexes were washed, eluted from the beads with SDS buffer, and subjected to RNase and proteinase K treatment. Crosslinks were reversed by incubation overnight at 65 C, and ChIP DNA was purified by phenol-chloroform extraction and ethanol precipitation.

[1] = system: hepatic glucose metabolism; assay: Mouse MIDA model for liver glucose metabolism; assay type: in vivo; conditions: prednisolone 10 mg/kg, Org 214007-0 1.5 mg/kg; for glucokinase flux rate / gluconeogenic flux (de novo synthesis of glucose-6-phosphate) / glucose-6-phosphatase flux / glycogen phosphorylase flux / glycogen synthase flux rate / liver glucose balance / liver glycogen balance / metabolic clearance rate of blood glucose: 7 days p.o.; for fasting blood glucose levels vs vehicle: oral daily 7 days
Experimental: Eighteen hours after the last oral treatment and 9 hours after start of starvation, blood samples were taken from the tail vein and directly used for glucose measurements using “One touch Ultra” glucose meter from Lifescan EuroFlash (Lifescan Benelux Beerse, Belgium). The mouse MIDA study was performed as described previously by van Dijk et al., [52]. […] On the third day, mice were cannulated in the right jugular vein. After 7 days of treatment, mice were placed in small Plexiglas cages, which allowed collection of blood samples frequently in freely moving mice. Twenty four hours after the final dose and after a 9 hours starving period, a tail vein blood sample was used for a glucose measurement after which mice were shortly anesthetized to attach the infusion lines before the experiment. Filter paper was placed under the wired floor cages to collect urine samples and replaced hourly. Mice received an infusion of a sterilized aqueous solution containing [U-^13C]glucose (13 μmol/ml), [2-^13C]glycerol (160 μmol/ml), [1-^2H]galactose (33 μmol/ml) and paracetamol (1 mg/ml) at a rate of 0.54 ml/hr for 6 hours. During the experiment blood glucose was measured and blood spots for GCMS measurements were collected from tail tips just before the start of the infusion and at hourly intervals. Blood spots and urine filter papers were air-dried and stored at room temperature until analysis. Glucose and paracetamol-glucuronic acid (Par-GLcUa) were extracted from blood spot and urine filter papers, respectively, derivatised, and measured by GC-MS, essentially as described previously, [52]. The fractional isotopomer distribution according to GC-MS was corrected for fractional distribution due to the natural abundance of ^13C by multiple linear regression to obtain the excess mole fraction of mass isotopomers M0-M6 due to incorporation of infused labeled carbohydrates. From isotope dilution and infusion rates, the flux rates of the following metabolic pathways could be calculated: 1) de novo synthesis of G6P, 2) glucokinase, 3) glucose-6-phosphatase, 4) glycogenolysis, and 5) glycogen synthesis. The method of calculation was performed as described before, [52], [53].

[2] = system: primary human whole blood cells; assay: Human whole blood LPS-induced cytokine release; assay type: cell-based; conditions: for IC50: Whole blood cell, LPS, 24 hours, read-out: IC50, LPS-induced TNFα release; for Max. eff., LPS-induced TNFα repression: prednisolone = 100%
Excerpt: Hereafter, supernatant was carefully collected and tested at the most optimal dilution (predetermined by a titration study on control samples) in a human TNFα-specific ELISA (for the LPS stimulated samples) or in a human IL-5-specific or human G-CSF-specific ELISA (for the PMA/anti-CD28 stimulated samples) (Duoset, R&D systems USA).

SMILES	number of ChIP-Seq clusters compared to vehicle (GR; inflammatory condition)	number of ChIP-Seq clusters compared to vehicle (GR; non-stimulated condition)	binding sites also contained within the prednisolone set (GR; non-stimulated, 2080 vs 9413 sites) [%]	glucokinase flux rate [1]	gluconeogenic flux (de novo synthesis of glucose-6-phosphate) [1]	glucose-6-phosphatase flux [1]	glycogen phosphorylase flux [1]	glycogen synthase flux rate [1]	liver glucose balance [1]	liver glycogen balance [1]	metabolic clearance rate of blood glucose [1]	fasting blood glucose levels vs vehicle [1]	IC50 [2] [nM]	Max. eff., LPS-induced TNFα repression [2]
Cc1nnsc1C(=O)N[C@H]1CCN2c3ccc(C#N)cc3[C@@H](C)c3ccccc3[C@@H]2C1 [Org 214007-0]	2502	2080	99.5	no significant effects	Neither Org 214007-0 nor prednisolone, at equi-efficacious dosages, effects	Neither the glucose-6-phosphatase flux (A) nor the glycogen phosphorylase flux (B) were affected	Neither the glucose-6-phosphatase flux (A) nor the glycogen phosphorylase flux (B) were affected	no significant effects	not affected	not effected	Neither Org 214007-0 nor prednisolone, at equi-efficacious dosages, effects	did not affect	50	68 (±8.7) %
C[C@]12C=CC(=O)C=C1CC[C@@H]1[C@@H]2[C@@H](O)C[C@@]2(C)[C@H]1CC[C@]2(O)C(=O)CO [prednisolone, reference compound]	3471	9413		significantly decreased	no change	Neither the glucose-6-phosphatase flux (A) nor the glycogen phosphorylase flux (B) were affected	Neither the glucose-6-phosphatase flux (A) nor the glycogen phosphorylase flux (B) were affected	significantly decreased	significantly changed	significantly changed	Neither Org 214007-0 nor prednisolone, at equi-efficacious dosages, effects	significantly elevated	27	100%
